Our source for the MIC values is patent US4465631A, “5-Substituted-3-isoxazolecarboxylic acid derivatives” (Ajinomoto Company, Incorporated, priority 1982, dated 1984).

One may read the MIC as the lowest concentration found to suppress growth.

Converted amounts (≈) assume the structure as drawn. Structures can show the parent of a compound that is named as a salt. Where two headings read alike, the source gives them in different places.

Assay in all cases: Antibacterial activity (MIC)
Common to all, as to type: cell-based

Experiment [1] deals with Pseudomonas cepacia. Conditions: Burkholderia cepacia. The source says: (§1) Regarding the products produced in the above mentioned Examples antibacterial activities against some microorganisms were obtained.
Experiment [2] relates to Alcaligenes faecalis.
From the text: as §1

For experiment [3], the system named is Bacteroides fragilis.
From the text: as §1

In experiment [4] the test system is Proteus mirabilis.
From the text: as §1

Experiment [5] concerns Achromobacter xylosoxidans.
From the text: as §1

Experiment [6] has as its system Pseudomonas maltophilia. Conditions: Stenotrophomonas maltophilia.
From the text: as §1

Experiment [7] deals with Staphylococcus aureus.
From the text: as §1

In experiment [8] the test system is Escherichia coli.
From the text: as §1

The test system of experiment [9] is Pseudomonas aeruginosa.
From the text: as §1

The test system of experiment [10] is Serratia marcescens.
From the text: as §1

In experiment [11] the test system is Klebsiella pneumoniae.
From the text: as §1

As for `CC1(C)S[C@@H]2[C@H](NC(=O)C(C(=O)O)c3ccccc3)C(=O)N2[C@H]1C(=O)O` (some centres unmarked) [Carbenicillin, reference compound], the MIC in experiment [1] is over 100 µg/mL; in experiment [2], over 100 µg/mL; in [3], over 100 µg/mL; in [4] it was 0.78 µg/mL (≈ 2.06 µM); in experiment [5], over 100 µg/mL; in experiment [6], over 100 µg/mL. Also, the minimal inhibitory concentration (MIC) is 0.78 µg/mL (≈ 2.06 µM) in experiment [7]; 12.5 µg/mL (≈ 33 µM) in [8]; 25 µg/mL (≈ 66.1 µM) in experiment [9]; over 100 µg/mL in [10]; over 100 µg/mL in [11].

As to `Cc1ccc(-c2cc(C(=O)N[C@@H](C(=O)N[C@@H]3C(=O)N4[C@@H]3SC(C)(C)[C@@H]4C(=O)O)c3ccccc3)no2)cc1` [Example 1, α-[5-(4-methylphenyl)-3-isoxazolecarboxamido]-benzylpenicillin], the minimum inhibitory concentration (MIC) was 3.13 µg/mL (≈ 5.85 µM) in [1]; 6.25 µg/mL (≈ 11.7 µM) in experiment [2]; 6.25 µg/mL (≈ 11.7 µM) in experiment [3]; 0.78 µg/mL (≈ 1.46 µM) in [4]; 1.56 µg/mL (≈ 2.92 µM) in [5]; 6.25 µg/mL (≈ 11.7 µM) in experiment [6]. Also, the minimum inhibitory concentration (MIC) in experiment [7] was at most 0.1 µg/mL; in experiment [8] (read-out: MIC), 12.5 µg/mL (≈ 23.4 µM); in [9], 3.13 µg/mL (≈ 5.85 µM); in [10], 12.5 µg/mL (≈ 23.4 µM); in experiment [11], 6.25 µg/mL (≈ 11.7 µM).

For `COc1cccc(-c2cc(C(=O)N[C@@H](C(=O)N[C@@H]3C(=O)N4[C@@H]3SC(C)(C)[C@@H]4C(=O)O)c3ccccc3)no2)c1` [Example 3, D-α-(5-m-anisylisoxazole-3-carboxamido)-benzylpenicillin sodium salt], the MIC in [1] was 3.13 µg/mL; in experiment [2], 6.25 µg/mL; in experiment [3] it was 12.5 µg/mL; in experiment [4], 0.39 µg/mL; in experiment [5] it was 3.13 µg/mL; in experiment [6], 12.5 µg/mL. Also, the MIC in experiment [7] came out at 0.2 µg/mL; in experiment [8] (read-out: MIC), 12.5 µg/mL; in [9], 6.25 µg/mL; in [10], 12.5 µg/mL; in experiment [11], 12.5 µg/mL.

`CC1(C)S[C@@H]2[C@H](NC(=O)[C@H](NC(=O)c3cc(-c4cccs4)on3)c3ccccc3)C(=O)N2[C@H]1C(=O)O` [Example 8, D-α-[5-(2-thienyl)-isoxazole-3-carboxamido]-benzyl-penicillin sodium salt]: the MIC in experiment [1] is 6.25 µg/mL; in experiment [2] it was 12.5 µg/mL; in [3], 12.5 µg/mL; in [4] it was 0.78 µg/mL; in [5], 3.13 µg/mL; in [6] it was 12.5 µg/mL. The MIC in [7] is at most 0.1 µg/mL; in experiment [8] (read-out: MIC) it was 12.5 µg/mL; in experiment [9], 6.25 µg/mL; in experiment [10], 25 µg/mL; in experiment [11], 12.5 µg/mL.
